Assay results taken from US20220064167A1, “IMIDAZO-PYRAZOLE CARBOXAMIDE DERIVATIVES AS ANTICANCER AGENTS AND THE SYNTHESIS THEREOF” (AVIDIN KFT., priority 2018, published 2022).

Tests used:
[1] = tested on: human primary fibroblasts; experiment: resazurin viability assay on primary fibroblasts, Example 103 (FIG. 1); assay type: cell-based; details: 72 h incubation, applied concentration range 1.6 nM-5 μM
Excerpt: To obtain primary human fibroblasts healthy volunteers (age 18-60 years) were enrolled into the study. The punch biopsies were taken from healthy subjects from the breast area undergoing plastic surgery. Primary fibroblasts were obtained from the skin by enzymatic digestion according to a standard protocol. Skin specimens were first washed in Salsol A solution (Human Rt, Gödöllö, Hungary) supplemented with 2% antibiotic/antimycotic solution (Sigma-Aldrich). Skin samples were then cut into narrow strips and incubated in Dispase solution (Roche Diagnostics, Mannheim, Germany) overnight at 4° C. The epidermis was subsequently separated from the dermis. Fibroblasts were obtained by incubating the dermis in Digestion Mix solution (Collagenase, Hyaluronidase and Deoxyribonuclease) for 2h at 37° C. Cell suspensions were filtered through a 100 μm nylon mesh (BD Falcon, San Jose, Calif., USA) and cells were pelleted by centrifugation. Fibroblasts were grown in low glucose DMEM medium containing 5% FBS, 1% antibiotic/antimycotic (PAA, Pasching, Austria) and 1% L-glutamine solution (PAA). Fibroblasts were cultured at 37° C. and 5% CO2 in humidified conditions. Depending on the cell growth, the medium was changed every 2-4 days and cells were passaged at 80% of confluence.
The human primary fibroblasts (6000 cells/well) and Hl60 cells (20.000 cells/well) were seeded into 96-well plates (Corning Life Sciences) in media. Fibroblasts were cultured overnight before treatment. […] Resazurin reagent was prepared and used as described in Example 1.
(§1) Viability was calculated with relation to untreated control cells and blank wells containing media without cells. IC50 values (50% inhibiting concentration) were calculated by GraphPad Prism® 5.

HL-60 cells = experiment: resazurin viability assay, Example 103 (FIG. 1); assay type: cell-based; details: Homo sapiens, 72 h incubation, 20.000 cells/well, read-out: half-inhibitory concentration (IC50) on viability of HL-60 cells
Procedure: The human primary fibroblasts (6000 cells/well) and Hl60 cells (20.000 cells/well) were seeded into 96-well plates (Corning Life Sciences) in media. Fibroblasts were cultured overnight before treatment. Effects of compounds described in Example 22, 60 and 83 were examined in concentrations of 1 μM, 250 nM, 62.5 nM, 15.6 nM, 3.9 nM and 0.9 nM in 100 μl after 72 h incubation. Resazurin reagent was prepared and used as described in Example 1.
as §1

Bcl-xl in HL-60 cells = experiment: flow cytometry of Bcl-xl bright cells (FIG. 2A); assay type: cell-based, human; details: HL-60, 40 nM, 200 nM and 1 μM, 24 h
Procedure: Human promyelocytic leukemia HL60 Cells (500,000/well) were plated in 24-well tissue culture plates (Corning Life Sciences) in RPMI 10% FCS (Gibco) and were treated with the compounds described in Example 60 and 83 at 40 nM, 200 nM and 1 μM concentrations in 500 μl media. After 24 h incubation time cells with the corresponding supernatants were harvested and centrifuged down (2000 rpm, 5 min).
Pellets were resuspended and fixed in 3.5% PBS buffered formaldehyde (Molar Chemicals) for 10 minutes. Cells were washed with FACS-buffer (2% FCS, (Gibco) in PBS), centrifuged down (2000 rpm, 5 min). Cells were permeabilized in Permeability buffer (1% FCS, 0.1% saponin (Sigma-Aldrich) in PBS pH 7.4) for 5 minutes. Cells were washed with FACS buffer (2% FCS, (Gibco) in PBS), centrifuged (2000 rpm, 5 min). The following primary antibodies were used: Bcl-xl-Alexa 488, (Cell Signaling, cat. numb. 2767S), dilution 1:75, 24 h; pAkt-Alexa Fluor 488, (Ser473), (Cell Signaling, cat. numb, 4071), dilution 1:50, 24 or 72h; After incubation for 1h at 4° C. samples were washed two times with FACS buffer. […] In order to calculate the signal to noise ratio mean fluorescent intensity (MFI) was calculated by the following equation: =POWER(10; (Medianstained−Median unstained, untreated)/Chd), where Chd means 256, the number of channels per decade (Fajka-Boja et al. 2002; Sharrow 2001) in Microsoft Excel. […]

[2] = tested on: 4T1 mouse cells inoculated into the mammary gland of BalbC mouse; experiment: mammary carcinoma mouse model (FIG. 6); assay type: in vivo; details: 3 mg/kg intravenously, every other day from day 16, 6 occasions, compared to vehicle
Procedure: The effect on mammary carcinoma was studied on BalbC mouse model inoculated subcutaneously into the mammary gland with 4T1 mouse cells (ATCC) (100,000 cells/animal). Two groups were formed from randomly selected mice, with 8 animals in both groups. Group 1: control group, it was only administered a carrier (0.1 mL, 0.9% NaCl solution) intravenously; group 2: group treated with compound 83, it was administered 3 mg/kg of compound 83 in PEG100:Solutol:PBS (1:4:15 vol ratio), intravenously after the tumor reached 300 mm^3 (day 16). The treatments were performed from the sixteenth day, every other day, for a total of 6 occasions. Starting from the 16th day on every day the size of the increasing tumours was determined in the case of each animal, and the group average was represented per group (FIG. 6). The standard deviation was determined in SEM. It can be seen that the treatment with compound 83 reduced the size of the increasing mammary tumour.

Structure (SMILES) | decrease in viability of human primary fibroblasts [1] | IC50 (HL-60 cells) [nM] | percentage of the Bcl-xl bright cells (Bcl-xl in HL-60 cells) | size of the increasing mammary tumour [2]
CC(C)(C)Nc1c(C(C)(C)C)[nH]c2c(C(=O)Nc3ccc(F)cc3)cnn12 [Example 60, 2-(Tert-butyl)-N-(4-fluorophenyl)-3-((tert-butyl-2-yl)amino)-1H-imidazo[1,2-b]pyrazole-7-carboxamide] | Significant decrease in viability was not apparent | 210 | increase | 
CC(C)(C)Nc1c(C(C)(C)C)[nH]c2c(C(=O)Nc3ccc(N)cc3)cnn12 [Example 83, N-(4-Aminophenyl)-2-(tert-butyl)-3-(tert-butylamino)-1H-imidazo[1,2-b]pyrazole-7-carboxamide] | Significant decrease in viability was not apparent | 50 | increase | reduced
